{"source": "patent EP0796843B1", "about": "“1,25-dihydroxy-16,22,23-trisdehydro-cholecalciferol derivatives” (F. HOFFMANN-LA ROCHE AG, priority 1996, dated 1997)", "key": {"HaCaT cell line": {"test_system": "HaCaT cell line", "assay": "Inhibition of keratinocyte proliferation (3H-thymidine uptake)", "assay_type": "cell-based, human", "conditions": "HaCaT cells, 3H-thymidine incorporation after 6 days of culture, concentration leading to 50% of control values"}, "HL-60 cells": {"test_system": "HL-60 cells", "assay": "Induction of HL-60 cell differentiation (NBT reduction)", "assay_type": "cell-based", "conditions": "3 days, concentration leading to 50% of maximal differentiation achieved with 100-1000 nM calcitriol, read-out: ED50 (the source's name)"}, "Human T-cells": {"test_system": "Human T-cells", "assay": "Inhibition of γ-interferon release in PHA-stimulated T-cells (ELISA)", "assay_type": "cell-based"}, "Human T-cell": {"test_system": "Human T-cell", "assay": "Inhibition of T-cell proliferation (3H-thymidine, PHA-stimulated)", "assay_type": "cell-based", "protocol": "Mononuclear cells were isolated from venous blood of healthy donors by centrifugation of buffy coat leucocytes atop Ficoll-Paque. The lymphocytes (70-80% T-cells) were suspended in RPMI 1640 medium supplemented with 10% FCS and adjusted to 10^6 cells/ml. […] of this cell suspension were seeded into flat-bottom microtiter wells and stimulated with […] of PHA. Immediately after seeding, the test compounds listed below in Table V were added to yield final concentrations of between 1x10^-11 M -1 x 10^-6 M. All tests were run in the quadruplicates.\nAfter 3 and 4 days, ^3H-thymidine (5 Ci/mmol) was added to wells at a concentration of […]. Cells were pulse-labeled for the last 6 hours of the growth period. Cells were then harvested on to a 96 well filter plate using a cell harvester. After drying at […] under vacuum for 20-30 minutes, 20 µl of scintillor were added and the radioactivity bound to the filters was counted. Values are expressed as percent controls (samples without test compounds). The concentration leading to 50% of control values is determined graphically and given as IC50 (inhibiting concentration) in Table V. TABLE V"}, "[1]": {"assay": "Calcium tolerance test in mice (highest tolerated dose, body weight)", "assay_type": "in vivo", "conditions": "daily subcutaneous administration for 4 consecutive days, dose resulting in zero weight gain during 5 day treatment period", "description": "Profound changes in calcium homeostasis strongly affect the weight development of mice.\nMice (25-30 g body weight) received daily subcutaneous administrations of the compound for 4 consecutive days. Body weight was registered just before and at the end of a […] treatment period. The \"highest tolerated dose\" (HTD) is the dose which results in zero weight gain during this treatment period."}, "Sebaceous cells": {"test_system": "Sebaceous cells", "assay": "Inhibition of sebaceous cell proliferation (cell count)", "conditions": "adult human sebaceous cells in vitro, amount necessary to inhibit proliferation by 50% vs vehicle control"}, "[2]": {"conditions": "human lymphocytes (70-80% T-cells) stimulated with PHA, IFN-g by ELISA on days 3 and 4"}, "[3]": {"conditions": "human lymphocytes (70-80% T-cells) stimulated with PHA, 3H-thymidine after 3 and 4 days"}}, "data": [{"smiles": "C=C1/C(=C\\C=C2/CCC[C@]3(C)C([C@H](C)C=C=CC(C)(C)O)=CC[C@@H]23)C[C@@H](O)C[C@@H]1O", "note": "[1,25-Dihydroxy-16,22R,23-triene-cholecalciferol]", "values": [{"measurement": "IC50", "setting": "HaCaT cell line", "value": 0.01, "unit": "nM"}, {"measurement": "EC50", "setting": "HL-60 cells", "value": 0.22, "unit": "nM"}, {"measurement": "IC50", "setting": "Human T-cells; [2]", "value": 0.05, "unit": "nM"}, {"measurement": "IC50", "setting": "Human T-cell; [3]", "value": 0.55, "unit": "nM"}, {"measurement": "HTD", "setting": "[1]", "value": 2.5, "unit": "µg/kg"}, {"measurement": "ED50", "setting": "Sebaceous cells; listed as 1a,25-dihydroxy-16,22R,23-triene-cholecalciferol", "value": 0.001, "unit": "µM"}]}, {"smiles": "C=C1/C(=C\\C=C2/CCC[C@]3(C)C([C@H](C)C=C=CC(C)(C)O)=CC[C@@H]23)C[C@@H](O)C[C@@H]1O", "note": "[1,25-Dihydroxy-16,22S,23-triene-cholecalciferol]", "values": [{"measurement": "IC50", "setting": "HaCaT cell line", "value": 40, "unit": "nM"}, {"measurement": "EC50", "setting": "HL-60 cells", "value": 4.8, "unit": "nM"}, {"measurement": "IC50", "setting": "Human T-cells; [2]", "value": 3, "unit": "nM"}, {"measurement": "IC50", "setting": "Human T-cell; [3]", "value": 6, "unit": "nM"}, {"measurement": "HTD", "setting": "[1]", "value": 50.0, "unit": "µg/kg"}, {"measurement": "ED50", "setting": "Sebaceous cells; listed as 1a,25-dihydroxy-16,22S,23-triene-cholecalciferol", "value": 0.01, "unit": "µM"}]}, {"smiles": "C=C1/C(=C\\C=C2/CCC[C@]3(C)[C@@H]([C@H](C)CCCC(C)(C)O)CC[C@@H]23)C[C@@H](O)C[C@@H]1O", "note": "[1,25-Dihydroxy-cholecalciferol, reference compound]", "values": [{"measurement": "IC50", "setting": "HaCaT cell line; Homo sapiens", "value": 55, "unit": "nM"}, {"measurement": "IC50", "setting": "Human T-cells; Homo sapiens, T-cell", "value": 0.8, "unit": "nM"}, {"measurement": "IC50", "setting": "Human T-cell; Homo sapiens, T-cell", "value": 10, "unit": "nM"}, {"measurement": "HTD", "setting": "[1]", "value": 0.5, "unit": "µg/kg"}, {"measurement": "ED50", "setting": "Sebaceous cells", "value": 0.05, "unit": "µM"}]}]}
